Results taken from patent US20110015371A1 (Vertex Pharmaceuticals Incorporated, priority 1994, published 2011).
Counter-ions that a name gives are not always drawn. Non-standard residues stand in square brackets, D forms with d. Residues, ends and D or L forms follow the SMILES beside them. *: point of attachment. Hyp = O=C(O)[C@@H]1C[C@@H](O)CN1; Tic = O=C(O)[C@@H]1Cc2ccccc2CN1; Bn = c1ccc(C*)cc1

Key:
ICE = target: T1, ICE (Homo sapiens, UniProt P29466); assay: Enzyme assay with UV-visible substrate (Succinyl-Tyr-Val-Ala-Asp-pNitroanilide); type: biochemical
T1 sequence (P29466 120-297 limits assumed): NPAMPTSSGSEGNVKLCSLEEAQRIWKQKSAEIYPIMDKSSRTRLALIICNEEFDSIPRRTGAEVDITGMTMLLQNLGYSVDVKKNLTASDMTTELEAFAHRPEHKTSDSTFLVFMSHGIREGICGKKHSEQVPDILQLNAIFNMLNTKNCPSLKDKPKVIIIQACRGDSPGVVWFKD
T1 sequence (P29466 317-404 limits assumed): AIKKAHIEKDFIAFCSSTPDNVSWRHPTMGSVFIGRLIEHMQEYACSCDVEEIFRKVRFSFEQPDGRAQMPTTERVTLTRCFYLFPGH
Protocol: 1. Enzyme Assay with UV-Visible Substrate
This assay is run using an Succinyl-Tyr-Val-Ala-Asp-pNitroanilide substrate. Synthesis of analogous substrates is described by L. A. Reiter (Int. J. Peptide Protein Res. 43, 87-96 (1994)). The assay mixture contains:
The visible ICE assay is run in a 96-well microtiter plate. Buffer, ICE and DMSO (if inhibitor is present) are added to the wells in the order listed. The components are left to incubate at room temperature for 15 minutes starting at the time that all components are present in all wells. The microtiter plate reader is set to incubate at 37° C. After the 15 minute incubation, substrate is added directly to the wells and the reaction is monitored by following the release of the chromophore (pNA) at 405-603 nm at 37° C. for 20 minutes. A linear fit of the data is performed and the rate is calculated in mOD/min. DMSO is only present during experiments involving inhibitors, buffer is used to make up the volume to 100 μl in the other experiments.
For determination of enzyme inhibition constants (Ki) or the mode of inhibition (competitive, uncompetitive or noncompetitive), the rate data determined in the enzyme assays at varying inhibitor concentrations are computer-fit to standard enzyme kinetic equations (see I. H. Segel, Enzyme Kinetics, Wiley-Interscience, 1975).

[1] = test system: Human Peripheral Blood Mononuclear Cells (PBMC) or Enriched Adherent Mononuclear Cells; assay: Cell assay: IL-1β assay with human PBMC or enriched adherent mononuclear cells; type: cell-based; details: Example 4 table, LPS-stimulated cells, mature IL-1β in supernatant by ELISA
Excerpt: IL-1β Assay with a Mixed Population of Human Peripheral Blood Mononuclear Cells (PBMC) or Enriched Adherent Mononuclear Cells
Processing of pre-IL-1S by ICE can be measured in cell culture using a variety of cell sources. Human PBMC obtained from healthy donors provides a mixed population of lymphocyte subtypes and mononuclear cells that produce a spectrum of interleukins and cytokines in response to many classes of physiological stimulators. Adherent mononuclear cells from PBMC provides an enriched source of normal monocytes for selective studies of cytokine production by activated cells.
An initial dilution series of test compound in DMSO or ethanol is prepared, with a subsequent dilution into RPMI-10% FBS media (containing 2 mM L-glutamine, 10 mM HEPES, 50 U and 50 ug/ml pen/strep) respectively to yield drugs at 4× the final test concentration containing 0.4% DMSO or 0.4% ethanol. The final concentration of DMSO is 0.1% for all drug dilutions. A concentration titration which brackets the apparent Ki for a test compound determined in an ICE inhibition assay is generally used for the primary compound screen.
We generally test 5-6 compound dilutions and have performed the cellular component of the assay in duplicate, with duplicate ELISA determinations on each cell culture supernatant.
Buffy coat cells isolated from one pint human blood (yielding 40-45 ml final volume plasma plus cells) are diluted with media to 80 ml and LeukoPREP separation tubes (Becton Dickinson) are each overlaid with 10 ml of cell suspension. After 15 min centrifugation at 1500-1800×g, the plasma/media layer is aspirated and then the mononuclear cell layer is collected with a Pasteur pipette and transferred to a 15 ml conical centrifuge tube (Corning). Media is added to bring the volume to 15 ml, gently mix the cells by inversion and centrifuge at 300×g for 15 min. Resuspend the PBMC pellet in a small volume of media, count cells and adjust to 6×10^6 cells/ml.
For the cellular assay, add 1.0 ml of the cell suspension to each well of a 24-well flat bottom tissue culture plate (Corning), 0.5 ml test compound dilution and 0.5 ml LPS solution (Sigma #L-3012; 20 ng/ml solution prepared in complete RPMI media; final LPS concentration 5 ng/ml). The 0.5 ml additions of test compound and LPS are usually sufficient to mix the contents of the wells. Three control mixtures are run per experiment, with either LPS alone, solvent vehicle control, and/or additional media to adjust the final culture volume to 2.0 ml. The cell cultures are incubated for 16-18 hr at 37° C. in the presence of 5% CO2.
At the end of the incubation period, cells are harvested and transferred to 15 ml conical centrifuge tubes. After centrifugation for 10 min at 200×g, supernatants are harvested and transferred to 1.5 ml Eppendorf tubes. It may be noted that the cell pellet may be utilized for a biochemical evaluation of pre-IL-1S and/or mature IL-1β content in cytosol extracts by western blotting or ELISA with pre-IL-1β specific antisera.
PBMC are isolated and prepared as described above. Media (1.0 ml) is first added to wells followed by 0.5 ml of the PBMC suspension. After a one hour incubation, plates are gently shaken and nonadherent cells aspirated from each well. Wells are then gently washed three times with 1.0 ml of media and final resuspended in 1.0 ml media. The enrichment for adherent cells generally yields 2.5−3.0×10^5 cells per well. The addition of test compounds, LPS, cell incubation conditions and processing of supernatants proceeds as described above.
We have used Quantikine kits (R&D Systems) for measurement of mature IL-1β. Assays are performed according to the manufacturer's directions. Mature IL-1β levels of about 1-3 ng/ml in both PBMC and adherent mononuclear cell positive controls are observed. ELISA assays are performed on 1:5, 1:10 and 1:20 dilutions of supernatants from LPS-positive controls to select the optimal dilution for supernatants in the test panel.

CC(C(=O)N[C@H](C=O)CC(=O)O)n1c(Cc2ccccc2)ccc(NC(=O)CCc2ccccc2)c1=O (mixture of isomers) [Compound 54h, 3(S), N(2(R,S))3-(2-(6-Benzyl-1,2-dihydro-2-oxo-3-(3-phenylpropionyl)amino-1-pyridyl)propionylamino)-4-oxobutanoic acid] was tested, and the Ki (ICE; Example 4 table) was 0.97 µM.

In the case of O=CC(CC(=O)O)NC(=O)C1CCc2ncc(NC(=O)c3ccccc3)c(=O)n21 (single isomer, unassigned) [Compound 7a], the Ki (ICE; Example 4 table) is reported as 35 µM.

Compound O=CC(CC(=O)O)NC(=O)C1CCc2ncc(NC(=O)c3ccccc3)c(=O)n21 (single isomer, unassigned) [Compound 7b] has a Ki (ICE; Example 4 table) of 1.2 µM.

For O=C[C@H](CC(=O)O)NC(=O)CN(CCc1ccccc1)C(=O)c1ncc(CCCc2ccccc2)[nH]1 [Compound 25, (3S)-(2-{Phenethyl-[5-(3-phenylpropyl)-1H-imidazole-2-carbonyl]amino}acetylamino)-4-oxobutanoic acid trifluoroacetic acid salt], the Ki (ICE; Example 4 table) was 6.2 µM.

O=C[C@H](CC(=O)O)NC(=O)[C@@H]1CCCN2C(=O)CC[C@H](NC(=O)CCc3ccccc3)C(=O)N12 [Compound 47a, [3S, (1S,9S)]3-(6,10-Dioxo-octahydro-9-(3-phenylpropionylamino)-6H-pyridazino[1,2-a][1,2]diazepine-1-carboxamido)-4-oxobutanoic acid] was tested, and the Ki (ICE; Example 4 table) was 0.019 µM and the IC50 ([1]; Homo sapiens, PBMC) was 2.1 µM.

With O=C[C@H](CC(=O)O)NC(=O)Cn1c(CCc2ccccc2)ccc(NC(=O)CCc2ccccc2)c1=O [Compound 54c, 3(S)3-(1,2-Dihydro-2-oxo-6-phenethyl-3(3-phenyl-propionyl)amino-1-pyridyl)acetylamino-4-oxobutanoic acid] the Ki (ICE; Example 4 table) was 1.2 µM and the IC50 ([1]; Homo sapiens, PBMC) was > 19 µM.

O=C[C@H](CC(=O)O)NC(=O)Cn1c(-c2ccccc2)ccc(NC(=O)CCc2ccccc2)c1=O [Compound 54f, 3(S)3-(1,2-Dihydro-2-oxo-6-phenyl-3-(3-phenyl-propionyl)amino-1-pyridyl)acetylamino-4-oxobutanoic acid] gave a Ki (ICE; Example 4 table) of 0.9 µM.

Work on CC(=O)N[C@@H](Cc1ccc(O)cc1)C(=O)Nc1ccc(Cc2ccccc2)n(CC(=O)N[C@H](C=O)CC(=O)O)c1=O [Compound 54i, 3(S)3-(3-(2-Acetyl-L-tyrosinyl)amino-6-benzyl-1,2-dihydro-2-oxo-1-pyridyl)acetylamino-4-oxobutanoic acid] yielded a Ki (ICE; Example 4 table) of 0.054 µM and an IC50 ([1]; Homo sapiens, PBMC) of 2.4 µM.

With O=C[C@H](CC(=O)O)NC(=O)Cn1c(Cc2ccccc2)ccc(NC(=O)CCCc2ccccc2)c1=O [Compound 54l, 3(S)3-(6-Benzyl-1,2-dihydro-2-oxo-3-(4-phenylbutyryl)carbonylamino-1-pyridyl)acetylamino-4-oxobutanoic acid] the Ki (ICE; Example 4 table) was 0.215 µM and the IC50 [1] was 7 µM.

CC(C)[C@H](NC(=O)OCc1ccccc1)C(=O)N[C@@H](C)C(=O)N[C@@H](CC(=O)O)C(=O)c1nc2ccccc2o1 [Compound 63, (3S)N-(N-Benzyloxycarbonyl-(S)-valinyl-(S)-alaninyl)-3-amino-4-(2-benzoxazolyl)-4-oxobutanoate] showed a Ki (ICE; Example 4 table) of 0.85 µM and an IC50 [1] of 4.1 µM.

O=C[C@H](CC(=O)O)NC(=O)CN1CCCC[C@H](NC(=O)CCc2ccc(O)cc2)C1=O [Compound 92, 3-(S)-(2-(3[3-(S)-(4-Hydroxy-phenyl)-propionylamino]-2-oxo-azepan-1-yl)-acetylamino)-4-oxo-butyric acid] showed a Ki (ICE; Example 6 table) of 3.8 µM.

Work on O=C(O)C[C@H](NC(=O)[C@@H]1CCc2ncc(NC(=O)CCc3ccccc3)c(=O)n21)C(=O)c1ncc(-c2c(Cl)cccc2Cl)o1 [Compound 102c, 4-[5-(2,6-Dichloro-phenyl)-oxazol-2-yl]-4-oxo-(3S)-{[4-oxo-3-(3-phenyl-propionylamino)-4,6,7,8-tetrahydro-pyrrolo[1,2-a]pyrimidine-(6S)-carbonyl]-amino}-butyric acid] yielded a Ki (ICE; Example 6 table) of 0.68 µM.

O=C[C@H](CC(=O)O)NC(=O)CN1CCN(Cc2ccccc2)C[C@H](NC(=O)OCc2ccccc2)C1=O [Compound 114b, 3(S)-{2-[4-Benzyl-7-oxo-6(S)—(N-benzyloxycarbonylamino)-[1,4]diazepan-1-yl]-acetylamino}-4-oxo-butyric acid trifluoroacetic acid salt] showed a Ki (ICE; Example 6 table) of 3.7 µM.

With O=C[C@H](CC(=O)O)NC(=O)[C@@H]1CCCN2C(=O)C[C@@H](NC(=O)CCc3ccccc3)C(=O)N12 [Compound 132b] the Ki (ICE; Example 6 table) was 12.5 µM.

O=C[C@H](CC(=O)O)NC(=O)[C@@H]1CS[C@@H]2CCC[C@H](NC(=O)CCc3ccccc3)C(=O)N21 [Compound 141] showed a Ki (ICE; Example 6 table) of 0.67 µM.

Compound CC(C)[C@H](NC(=O)OCc1ccccc1)C(=O)N[C@@H](C)C(=O)N[C@@H](CC(=O)O)C(=O)c1ncco1 [Compound 152] has a Ki (ICE; Example 6 table) of 8.8 µM.

CC(C)[C@H](NC(=O)OCc1ccccc1)C(=O)N[C@@H](C)C(=O)N[C@@H](CC(=O)O)C(=O)c1nc(-c2ccccc2)co1 [Compound 153] showed a Ki (ICE; Example 6 table) of 0.24 µM.

In the case of CC(=O)N[C@@H](Cc1ccc(O)cc1)C(=O)N[C@H](C(=O)N1CCC[C@H]1C(=O)N[C@@H](CC(=O)O)C(=O)c1ncc(-c2c(Cl)cccc2Cl)o1)C(C)C [Compound 155], the Ki (ICE; Example 6 table) is reported as 0.023 µM.

With O=C(O)C[C@H](NC(=O)[C@@H]1CCCN1C(=O)c1ncc(CCCc2ccccc2)[nH]1)C(=O)c1ncc(-c2c(Cl)cccc2Cl)o1 [Compound 157] the Ki (ICE; Example 6 table) was 0.26 µM.

CC(=O)N[C@H](C(=O)N1C[C@H](OCc2ccccc2)C[C@H]1C(=O)N[C@H](C=O)CC(=O)O)C(C)C [Compound 158] (Ac-Val-[Hyp](Bn)-Asp-aldehyde) showed a Ki (ICE; Example 6 table) of 1.1 µM.

In the case of CC(=O)N[C@@H](Cc1ccc(O)cc1)C(=O)N[C@H](C(=O)N1C[C@H](Oc2ccccc2)CC1C(=O)N[C@@H](CC(=O)O)C(=O)CSCc1ccccc1Cl)C(C)C (stereo partly drawn) [Compound 161], the Ki (ICE; Example 6 table) is reported as 0.011 µM.

Work on CC(=O)N[C@@H](Cc1ccc(O)cc1)C(=O)N[C@H](C(=O)N1Cc2ccccc2C[C@H]1C(=O)N[C@H](C=O)CC(=O)O)C(C)C [L, N-[2-(N-Acetyl-tyrosinyl-valinyl)-(S)-1,2,3,4-tetrahydroisoquinoline-3-carbonyl]-3-amino-oxobutanoic acid] (Ac-YV[Tic]D-aldehyde) yielded a Ki (ICE; Example 2 table) of 0.014 µM.
